Reference: US6447775B1, “Modulators of expression and function of LRP in Alzheimer's disease” (The General Hospital Corporation, priority 1995, dated 2002)
Entries after “also recorded” stand apart in the source; their conditions may differ.

Experiments:
[1] = system: LRP-expressing (MEF) cells; assay: Cellular internalization and degradation of 125I-labeled ligands by LRP-expressing mouse fibroblasts; type: cell-based
Protocol: (§1) Wells containing 2×10^5 LRP-expressing (MEF) or LRP-deficient (PEA13) cells were incubated with various concentrations (0.37-10 nM) of ^125I-APPs770 (Panels A and B) or 125I-APPs695 (Panels C and D) for 10 h at 37° C. in the absence of competitor (●) or in the presence of either 1 μM RAP (∘), or 100 μg/ml heparin (□). The cellular degradation of ^125I-labeled APPs770 by LRP-expressing MEF cells is shown in panel A and by LRP-deficient PEA13 cells in panel B. The cellular degradation of ^125I-APPs695 by LRP-expressing cells is depicted in panel C and by LRP-deficient cells in panel D. Plotted values represent means of duplicate determinations. Inset to panel B, autoradiogram of ^125I-labeled APPs770 (lane 1) and APPs695 (lane 2). The migration position of molecular mass standards are indicated on the right in kDa.
Wells containing 2×10^5 LRP-expressing (●) or LRP-deficient (∘) mouse fibroblasts were incubated with ^125I-LDL (8 μg/ml) or ^125I-α2M* (1.4 nM) for selected time intervals. […] Shown are the amounts of ^125I-LDL internalized (panel A) and degraded (panel B), ^125I-α2M* internalized (panel C) and degraded (panel D). The plotted values represent means of duplicate determinations.
Mouse fibroblasts (2×10^5 cells per well) were incubated for selected times with ^125I-APPs770 (1 nM) in the absence of competitor (●) or in the presence of either 1 μM RAP (∘), or 100 μg/ml heparin (□). The amount of radioactivity internalized and degraded was determined at the indicated time intervals. […] The plotted values are means of duplicate determinations.
Mouse fibroblasts (2×10^5 cells/well) were incubated for 18 h at 37° C. with ^125I-APPs770 (10 nM) in the absence of competitor or in the presence of either heparin (100 μg/ml), chloroquine (0.1 mM), RAP (1 μM), affinity purified anti-LRP IgG (100 μg/ml), or control IgG against the cytoplasmic domain of LRP (100 μg/ml). Panels show the amount of ^125I-APPs770 degraded by mouse fibroblasts expressing LRP (A) or ones deficient in LRP expression (B). The data shown are means of duplicate determinations±S. E.
Wells containing 2×10^5 LRP-expressing (MEF) or LRP-deficient (PEA13) cells were incubated with ^125I-APPs770 (5 nM) or ^125I-APPs770:FIXa (3 nM) for 18 h at 37° C. in the absence of competitor or in the presence of 1 μM RAP. The amount of ^125I-labeled APPs770 or ^125I-APPs770:Factor IXa degraded by LRP-expressing MEF cells is shown in panel A and that by LRP-deficient PEA13 cells in panel B. Plotted values represent means of duplicate determinations.
Mouse fibroblasts (2×10^5) were incubated for 18 h at 37° C. with ^125I-APP/PN-2 (8.8 nM) in the absence of competitor or in the presence of either RAP (1 μM)), 10 μg/ml apoE3/βVLDL, 10 μg/ml apoE4/βVLDL, or 10 μg/ml βVLDL. […]

[2] = molecular target: LRP (Homo sapiens, UniProt Q07954); assay: ELISA of LRP binding to APPs770 captured on zinc-coated wells; conditions: LRP 25 nM, RAP 0.2-450 nM
Chain of LRP (Q07954 20-3943 limits assumed): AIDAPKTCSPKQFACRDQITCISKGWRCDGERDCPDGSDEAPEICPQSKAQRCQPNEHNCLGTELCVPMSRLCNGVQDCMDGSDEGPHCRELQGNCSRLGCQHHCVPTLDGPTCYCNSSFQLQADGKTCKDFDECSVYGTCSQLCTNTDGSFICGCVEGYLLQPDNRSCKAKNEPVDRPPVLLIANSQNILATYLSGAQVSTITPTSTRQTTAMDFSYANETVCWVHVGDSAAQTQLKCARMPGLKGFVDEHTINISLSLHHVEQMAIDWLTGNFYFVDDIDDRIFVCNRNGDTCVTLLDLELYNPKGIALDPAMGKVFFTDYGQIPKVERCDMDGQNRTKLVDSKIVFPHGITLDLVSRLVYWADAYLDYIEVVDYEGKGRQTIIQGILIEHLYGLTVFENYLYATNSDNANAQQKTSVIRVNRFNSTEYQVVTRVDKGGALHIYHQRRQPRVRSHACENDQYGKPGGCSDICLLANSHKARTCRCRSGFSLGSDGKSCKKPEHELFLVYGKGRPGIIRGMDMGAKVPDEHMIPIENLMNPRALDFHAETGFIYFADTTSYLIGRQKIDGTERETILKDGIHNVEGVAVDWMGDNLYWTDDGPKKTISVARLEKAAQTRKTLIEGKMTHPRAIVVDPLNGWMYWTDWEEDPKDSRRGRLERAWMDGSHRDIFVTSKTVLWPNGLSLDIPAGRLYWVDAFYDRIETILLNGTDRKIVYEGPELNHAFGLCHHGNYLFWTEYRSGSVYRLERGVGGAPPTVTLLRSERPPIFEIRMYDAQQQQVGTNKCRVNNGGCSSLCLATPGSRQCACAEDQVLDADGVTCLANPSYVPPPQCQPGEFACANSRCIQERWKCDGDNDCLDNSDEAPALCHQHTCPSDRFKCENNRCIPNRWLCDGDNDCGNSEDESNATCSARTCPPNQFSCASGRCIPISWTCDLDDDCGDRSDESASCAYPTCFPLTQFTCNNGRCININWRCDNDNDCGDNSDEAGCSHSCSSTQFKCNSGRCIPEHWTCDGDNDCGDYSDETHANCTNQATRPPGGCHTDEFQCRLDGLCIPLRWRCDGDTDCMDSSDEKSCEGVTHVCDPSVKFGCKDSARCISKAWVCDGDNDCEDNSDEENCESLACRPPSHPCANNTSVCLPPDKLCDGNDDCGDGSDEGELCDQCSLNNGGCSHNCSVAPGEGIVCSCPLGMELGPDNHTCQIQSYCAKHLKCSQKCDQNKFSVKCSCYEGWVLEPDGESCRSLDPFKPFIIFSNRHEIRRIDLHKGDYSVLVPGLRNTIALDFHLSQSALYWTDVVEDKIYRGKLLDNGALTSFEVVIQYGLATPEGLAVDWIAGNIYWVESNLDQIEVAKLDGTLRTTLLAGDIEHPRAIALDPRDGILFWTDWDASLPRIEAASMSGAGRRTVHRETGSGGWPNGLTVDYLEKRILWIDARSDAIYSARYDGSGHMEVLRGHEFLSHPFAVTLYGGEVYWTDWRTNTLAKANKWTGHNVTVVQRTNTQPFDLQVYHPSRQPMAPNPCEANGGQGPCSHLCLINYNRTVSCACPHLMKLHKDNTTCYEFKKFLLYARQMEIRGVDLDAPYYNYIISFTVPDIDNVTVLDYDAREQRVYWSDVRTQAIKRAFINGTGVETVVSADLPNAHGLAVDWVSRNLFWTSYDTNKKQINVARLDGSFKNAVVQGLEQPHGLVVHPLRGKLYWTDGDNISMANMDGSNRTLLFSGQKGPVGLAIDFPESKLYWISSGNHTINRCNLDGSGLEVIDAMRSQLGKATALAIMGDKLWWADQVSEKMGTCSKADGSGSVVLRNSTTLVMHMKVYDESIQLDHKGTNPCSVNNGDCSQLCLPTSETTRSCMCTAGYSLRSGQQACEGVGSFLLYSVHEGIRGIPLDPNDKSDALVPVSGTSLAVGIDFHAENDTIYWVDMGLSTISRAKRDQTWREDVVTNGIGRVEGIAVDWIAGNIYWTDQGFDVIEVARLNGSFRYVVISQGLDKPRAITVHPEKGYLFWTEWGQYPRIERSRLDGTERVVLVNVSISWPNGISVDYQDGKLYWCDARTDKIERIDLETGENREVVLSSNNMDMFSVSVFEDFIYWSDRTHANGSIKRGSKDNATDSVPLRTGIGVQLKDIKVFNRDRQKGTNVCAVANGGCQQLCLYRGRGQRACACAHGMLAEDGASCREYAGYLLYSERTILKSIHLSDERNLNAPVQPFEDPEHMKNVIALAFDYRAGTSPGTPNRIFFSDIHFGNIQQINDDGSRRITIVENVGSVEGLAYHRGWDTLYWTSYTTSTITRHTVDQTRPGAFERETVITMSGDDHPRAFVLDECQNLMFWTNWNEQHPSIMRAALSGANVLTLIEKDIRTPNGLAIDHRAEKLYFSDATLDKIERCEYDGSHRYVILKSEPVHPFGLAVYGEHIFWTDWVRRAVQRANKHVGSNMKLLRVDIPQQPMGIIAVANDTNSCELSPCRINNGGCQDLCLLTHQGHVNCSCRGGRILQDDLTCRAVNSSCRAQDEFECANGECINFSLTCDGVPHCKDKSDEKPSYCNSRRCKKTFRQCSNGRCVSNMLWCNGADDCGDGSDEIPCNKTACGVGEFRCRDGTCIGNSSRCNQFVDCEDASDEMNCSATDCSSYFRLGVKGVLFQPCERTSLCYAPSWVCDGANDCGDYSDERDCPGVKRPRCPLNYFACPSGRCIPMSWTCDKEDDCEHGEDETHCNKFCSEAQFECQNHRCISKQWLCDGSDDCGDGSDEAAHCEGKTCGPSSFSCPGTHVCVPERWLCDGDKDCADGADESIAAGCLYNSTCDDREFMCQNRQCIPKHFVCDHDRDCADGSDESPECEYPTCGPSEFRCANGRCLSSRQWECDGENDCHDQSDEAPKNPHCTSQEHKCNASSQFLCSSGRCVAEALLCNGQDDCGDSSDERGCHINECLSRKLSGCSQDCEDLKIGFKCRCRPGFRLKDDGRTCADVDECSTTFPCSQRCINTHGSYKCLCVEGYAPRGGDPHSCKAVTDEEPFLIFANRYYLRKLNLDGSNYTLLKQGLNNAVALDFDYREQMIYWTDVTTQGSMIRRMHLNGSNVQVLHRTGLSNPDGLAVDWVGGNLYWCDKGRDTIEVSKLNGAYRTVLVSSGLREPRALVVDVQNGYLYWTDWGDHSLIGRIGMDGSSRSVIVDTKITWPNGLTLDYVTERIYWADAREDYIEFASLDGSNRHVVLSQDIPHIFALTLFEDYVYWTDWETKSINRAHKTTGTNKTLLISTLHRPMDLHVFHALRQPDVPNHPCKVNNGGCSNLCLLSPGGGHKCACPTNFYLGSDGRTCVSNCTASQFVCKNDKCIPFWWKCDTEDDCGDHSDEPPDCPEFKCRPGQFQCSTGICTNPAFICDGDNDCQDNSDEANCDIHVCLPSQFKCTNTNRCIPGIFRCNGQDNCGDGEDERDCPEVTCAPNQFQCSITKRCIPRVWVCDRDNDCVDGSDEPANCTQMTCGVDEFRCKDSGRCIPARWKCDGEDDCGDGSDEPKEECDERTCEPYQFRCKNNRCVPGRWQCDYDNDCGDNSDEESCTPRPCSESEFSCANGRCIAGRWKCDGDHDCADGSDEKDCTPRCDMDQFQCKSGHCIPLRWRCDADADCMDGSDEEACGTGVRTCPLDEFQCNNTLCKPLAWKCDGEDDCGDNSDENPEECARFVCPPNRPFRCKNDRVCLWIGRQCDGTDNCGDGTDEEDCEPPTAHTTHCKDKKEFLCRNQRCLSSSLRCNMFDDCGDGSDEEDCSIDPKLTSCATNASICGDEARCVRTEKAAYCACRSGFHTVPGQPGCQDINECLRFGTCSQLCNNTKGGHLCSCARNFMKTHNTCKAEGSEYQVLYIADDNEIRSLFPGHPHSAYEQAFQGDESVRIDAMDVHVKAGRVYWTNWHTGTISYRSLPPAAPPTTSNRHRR
Chain of LRP (Q07954 3944-4544 partner limits assumed): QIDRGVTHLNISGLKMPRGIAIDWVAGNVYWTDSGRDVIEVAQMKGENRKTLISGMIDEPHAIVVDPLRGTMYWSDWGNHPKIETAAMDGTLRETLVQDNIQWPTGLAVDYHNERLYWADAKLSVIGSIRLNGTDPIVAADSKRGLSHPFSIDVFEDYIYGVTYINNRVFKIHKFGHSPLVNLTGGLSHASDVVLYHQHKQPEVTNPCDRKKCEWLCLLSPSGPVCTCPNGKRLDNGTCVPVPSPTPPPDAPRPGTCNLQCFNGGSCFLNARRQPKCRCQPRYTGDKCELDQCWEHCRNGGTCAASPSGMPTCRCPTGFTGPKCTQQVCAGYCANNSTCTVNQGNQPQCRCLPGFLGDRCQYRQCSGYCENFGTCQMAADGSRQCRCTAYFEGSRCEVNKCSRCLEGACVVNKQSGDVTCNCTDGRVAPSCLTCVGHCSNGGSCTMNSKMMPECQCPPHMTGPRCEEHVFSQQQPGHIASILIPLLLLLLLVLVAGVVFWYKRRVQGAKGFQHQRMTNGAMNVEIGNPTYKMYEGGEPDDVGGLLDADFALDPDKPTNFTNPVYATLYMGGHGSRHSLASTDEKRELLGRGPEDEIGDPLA
Protocol: In panel A, zinc-coated wells (∘) or zinc-coated wells incubated with APPs770 (●) were incubated with the APPs770 monoclonal antibody 7H5. In panel B, increasing concentrations of LRP (0.14-300 nM) were incubated for 18 h at 4° C. with zinc-coated wells (∘) or zinc-coated wells with captured APPs770 (●). Panel C, LRP (25 nM) was incubated with zinc-coated wells (∘) or zinc-coated wells with captured APPs770 (●) in the presence of increasing concentrations of RAP (0.2-450 nM). Bound receptor was detected with the monoclonal LRP antibody 8G1. In the absence of LRP there was no binding of 8G1 IgG to APPs770-coated wells. Plotted values represent means of duplicate determinations.

[3] = system: LRP-deficient (PEA13) cells; assay: Cellular internalization and degradation of 125I-labeled ligands by LRP-deficient mouse fibroblasts; type: cell-based
Protocol: as §1
Wells containing 2×10^5 LRP-expressing (●) or LRP-deficient (∘) mouse fibroblasts were incubated with ^125I-LDL (8 μg/ml) or ^125I-α2M* (1.4 nM) for selected time intervals. […]
Mouse fibroblasts (2×10^5 cells per well) were incubated for selected times with ^125I-APPs770 (1 nM) in the absence of competitor (●) or in the presence of either 1 μM RAP (∘), or 100 μg/ml heparin (□). The amount of radioactivity internalized and degraded was determined at the indicated time intervals. […]

Molecule: RAP: 39 kDa receptor associated protein that binds members of the LDL receptor family and blocks their ligand binding capacity
- inhibition of 125I-APPs770 degradation by apoE isoforms/βVLDL or RAP ([1]; 18 h at 37° C., 125I-APP/PN-2 8.8 nM, 10 μg/ml apoE/βVLDL or RAP 1 μM, F(4,15)=21.65, p=0.0001, p<0.05 vs βVLDL alone, RAP p<0.001): statistically significant
- inhibition of catabolism/degradation of APP (125I-APPs770) by added competitor ([1]; LRP-containing fibroblasts, RAP 1 μM, anti-LRP IgG 100 μg/ml): inhibition of catabolism of APP; also recorded: inhibition of degradation
- inhibition of APP binding to LRP [2]: inhibition of APP binding

Molecule: heparin
- inhibition of internalization of APP (125I-APPs770) ([3]; 125I-APPs770 1 nM, heparin 100 μg/ml): inhibition of internalization of APP
- inhibition of internalization of APP (125I-APPs770) ([1]; LRP-containing fibroblasts, 125I-APPs770 1 nM, heparin 100 μg/ml): inhibition of internalization of APP

B1: α2-macroglobulin: 125I-labeled α2-macroglobulin, LRP ligand control (protein, UniProt P01023 24-1474, looked up)
Alpha-2-macroglobulin: SVSGKPQYMVLVPSLLHTETTEKGCVLLSYLNETVTVSASLESVRGNRSLFTDLEAENDVLHCVAFAVPKSSSNEEVMFLTVQVKGPTQEFKKRTTVMVKNEDSLVFVQTDKSIYKPGQTVKFRVVSMDENFHPLNELIPLVYIQDPKGNRIAQWQSFQLEGGLKQFSFPLSSEPFQGSYKVVVQKKSGGRTEHPFTVEEFVLPKFEVQVTVPKIITILEEEMNVSVCGLYTYGKPVPGHVTVSICRKYSDASDCHGEDSQAFCEKFSGQLNSHGCFYQQVKTKVFQLKRKEYEMKLHTEAQIQEEGTVVELTGRQSSEITRTITKLSFVKVDSHFRQGIPFFGQVRLVDGKGVPIPNKVIFIRGNEANYYSNATTDEHGLVQFSINTTNVMGTSLTVRVNYKDRSPCYGYQWVSEEHEEAHHTAYLVFSPSKSFVHLEPMSHELPCGHTQTVQAHYILNGGTLLGLKKLSFYYLIMAKGGIVRTGTHGLLVKQEDMKGHFSISIPVKSDIAPVARLLIYAVLPTGDVIGDSAKYDVENCLANKVDLSFSPSQSLPASHAHLRVTAAPQSVCALRAVDQSVLLMKPDAELSASSVYNLLPEKDLTGFPGPLNDQDNEDCINRHNVYINGITYTPVSSTNEKDMYSFLEDMGLKAFTNSKIRKPKMCPQLQQYEMHGPEGLRVGFYESDVMGRGHARLVHVEEPHTETVRKYFPETWIWDLVVVNSAGVAEVGVTVPDTITEWKAGAFCLSEDAGLGISSTASLRAFQPFFVELTMPYSVIRGEAFTLKATVLNYLPKCIRVSVQLEASPAFLAVPVEKEQAPHCICANGRQTVSWAVTPKSLGNVNFTVSAEALESQELCGTEVPSVPEHGRKDTVIKPLLVEPEGLEKETTFNSLLCPSGGEVSEELSLKLPPNVVEESARASVSVLGDILGSAMQNTQNLLQMPYGCGEQNMVLFAPNIYVLDYLNETQQLTPEIKSKAIGYLNTGYQRQLNYKHYDGSYSTFGERYGRNQGNTWLTAFVLKTFAQARAYIFIDEAHITQALIWLSQRQKDNGCFRSSGSLLNNAIKGGVEDEVTLSAYITIALLEIPLTVTHPVVRNALFCLESAWKTAQEGDHGSHVYTKALLAYAFALAGNQDKRKEVLKSLNEEAVKKDNSVHWERPQKPKAPVGHFYEPQAPSAEVEMTSYVLLAYLTAQPAPTSEDLTSATNIVKWITKQQNAQGGFSSTQDTVVALHALSKYGAATFTRTGKAAQVTIQSSGTFSSKFQVDNNNRLLLQQVSLPELPGEYSMKVTGEGCVYLQTSLKYNILPEKEEFPFALGVQTLPQTCDEPKAHTSFQISLSVSYTGSRSASNMAIVDVKMVSGFIPLKPTVKMLERSNHVSRTEVSSNHVLIYLDKVSNQTLSLFFTVLQDVPVRDLKPAIVKVYDYYETDEFAIAEYNAPCSKDLGNA
modifications: 125I label
notes: 125I-labeled α2-macroglobulin, LRP ligand control
- catabolism (internalization and degradation) of 125I-labeled ligand by cells ([3]; 37° C., no competitor): lack of both internalization and degradation
- catabolism (internalization and degradation) of 125I-labeled ligand by cells ([1]; LRP-containing fibroblasts, 37° C., no competitor): internalization and degradation
